A compilation of properties of binary mixtures (doi:10.1016/j.molliq.2020.112718)

Assay: xn = mol fraction of the nth substance listed
Details: 100 kPa

SMILES: COCC[n+]1ccn(C)c1.C[C@@H](O)[C@H](N)C(=O)[O-] + O
- viscosity (298.15 K, x1 = 0.3313): 740 mPa·s
- viscosity (298.15 K, x1 = 0.3795): 767 mPa·s
- viscosity (298.15 K, x1 = 0.4475): 800 mPa·s
- viscosity (298.15 K, x1 = 0.5347): 829 mPa·s
- viscosity (298.15 K, x1 = 0.657): 852 mPa·s
- viscosity (298.15 K, x1 = 1): 900 mPa·s
- viscosity (303.15 K, x1 = 0.3313): 473 mPa·s
- viscosity (303.15 K, x1 = 0.3795): 500 mPa·s
- viscosity (303.15 K, x1 = 0.4475): 529 mPa·s
- viscosity (303.15 K, x1 = 1): 625 mPa·s
- viscosity (308.15 K, x1 = 0.3795): 306 mPa·s
- viscosity (308.15 K, x1 = 0.4475): 320 mPa·s
- viscosity (308.15 K, x1 = 0.5347): 332 mPa·s
- viscosity (308.15 K, x1 = 0.657): 344 mPa·s
- viscosity (308.15 K, x1 = 1): 362 mPa·s
- viscosity (313.15 K, x1 = 0.3313): 199.2 mPa·s
- viscosity (313.15 K, x1 = 0.3795): 210 mPa·s
- viscosity (313.15 K, x1 = 0.4475): 222 mPa·s
- viscosity (313.15 K, x1 = 0.5347): 233 mPa·s
- viscosity (313.15 K, x1 = 0.657): 242 mPa·s
- viscosity (313.15 K, x1 = 1): 260 mPa·s
- viscosity (318.15 K, x1 = 0.3313): 139.9 mPa·s
- viscosity (318.15 K, x1 = 0.3795): 148.1 mPa·s
- viscosity (318.15 K, x1 = 0.4475): 155.8 mPa·s
- viscosity (318.15 K, x1 = 0.657): 171.8 mPa·s
- viscosity (318.15 K, x1 = 1): 184.4 mPa·s
- viscosity (323.15 K, x1 = 0.3313): 101.7 mPa·s
- viscosity (323.15 K, x1 = 0.3795): 108.5 mPa·s
- viscosity (323.15 K, x1 = 1): 136.8 mPa·s
- viscosity (328.15 K, x1 = 0.3313): 82.2 mPa·s
- viscosity (328.15 K, x1 = 0.3795): 84.9 mPa·s
- viscosity (328.15 K, x1 = 0.4475): 88.2 mPa·s
- viscosity (328.15 K, x1 = 0.5347): 91.3 mPa·s
- viscosity (328.15 K, x1 = 0.657): 94.8 mPa·s
- viscosity (328.15 K, x1 = 1): 99.6 mPa·s

SMILES: CCOCC[n+]1ccn(C)c1.C[C@@H](O)[C@H](N)C(=O)[O-] + O
- viscosity (298.15 K, x1 = 0.3157): 834 mPa·s
- viscosity (298.15 K, x1 = 0.3647): 889 mPa·s
- viscosity (298.15 K, x1 = 0.4246): 938 mPa·s
- viscosity (298.15 K, x1 = 0.508): 990 mPa·s
- viscosity (298.15 K, x1 = 1): 1133 mPa·s
- viscosity (303.15 K, x1 = 0.3157): 538 mPa·s
- viscosity (303.15 K, x1 = 0.3647): 571 mPa·s
- viscosity (303.15 K, x1 = 0.4246): 604 mPa·s
- viscosity (303.15 K, x1 = 0.508): 638 mPa·s
- viscosity (303.15 K, x1 = 0.6189): 671 mPa·s
- viscosity (303.15 K, x1 = 1): 730 mPa·s
- viscosity (308.15 K, x1 = 0.3157): 344 mPa·s
- viscosity (308.15 K, x1 = 0.3647): 360 mPa·s
- viscosity (308.15 K, x1 = 0.4246): 376 mPa·s
- viscosity (308.15 K, x1 = 0.508): 393 mPa·s
- viscosity (308.15 K, x1 = 0.6189): 410 mPa·s
- viscosity (308.15 K, x1 = 1): 439 mPa·s
- viscosity (313.15 K, x1 = 0.3157): 231 mPa·s
- viscosity (313.15 K, x1 = 0.4246): 259 mPa·s
- viscosity (313.15 K, x1 = 0.508): 273 mPa·s
- viscosity (313.15 K, x1 = 0.6189): 287 mPa·s
- viscosity (313.15 K, x1 = 1): 313 mPa·s
- viscosity (318.15 K, x1 = 0.3157): 167 mPa·s
- viscosity (318.15 K, x1 = 0.3647): 174.5 mPa·s
- viscosity (318.15 K, x1 = 0.4246): 180.6 mPa·s
- viscosity (318.15 K, x1 = 0.508): 187.2 mPa·s
- viscosity (318.15 K, x1 = 0.6189): 195 mPa·s
- viscosity (318.15 K, x1 = 1): 207 mPa·s
- viscosity (323.15 K, x1 = 0.4246): 130.8 mPa·s
- viscosity (323.15 K, x1 = 0.508): 136.2 mPa·s
- viscosity (323.15 K, x1 = 0.6189): 143.5 mPa·s
- viscosity (323.15 K, x1 = 1): 153.8 mPa·s
- viscosity (328.15 K, x1 = 0.3157): 97.8 mPa·s
- viscosity (328.15 K, x1 = 0.4246): 102.6 mPa·s
- viscosity (328.15 K, x1 = 0.6189): 109.6 mPa·s
